Assay results as given in ChEMBL document CHEMBL3407427, “Discovery of efficacious Pseudomonas aeruginosa-targeted siderophore-conjugated monocarbams by application of a semi-mechanistic pharmacokinetic/pharmacodynamic model” (J Med Chem, 2015).
≈ marks a conversion by molar mass, not a printed value.

Columns and labels:
Pseudomonas aeruginosa [1] = test: Antimicrobial activity against Pseudomonas aeruginosa PAO1 ARC545 by broth microdilution method; format: functional
[2] = Percentage unbound in human plasma at 10 uM after 16 hrs by LC-MS/MS analysis
[3] = Half life in Wistar Han rat at 1 mg/kg, iv infusion; format: ADME, organism-based; design: dose 1 mg/kg, route intravenous; conditions: in vivo
[4] = Clearance in Wistar Han rat at 1 mg/kg, iv infusion; format: ADME, organism-based; design: dose 1 mg/kg, route intravenous; conditions: in vivo
Acinetobacter baumannii = test: Antimicrobial activity against Acinetobacter baumannii by broth microdilution method; format: functional
[5] = Plasma protein binding in Wistar Han rat as percentage unbound
Klebsiella pneumoniae = test: Antimicrobial activity against Klebsiella pneumoniae by broth microdilution method; format: functional
Pseudomonas aeruginosa [6] = test: Inhibition of Pseudomonas aeruginosa PBP3 acylation activity by BOCILLIN FL-based assay
Pseudomonas aeruginosa [7] = test: Antimicrobial activity against MexABCDXY-deficient Pseudomonas aeruginosa PAO1 ARC546 by broth microdilution method; format: functional
[8] = Volume of distribution at steady state in Wistar Han rat at 1 mg/kg, iv infusion; format: ADME, organism-based; design: dose 1 mg/kg, route intravenous; conditions: in vivo, read-out: Vdss
[9] = Half life in PBS buffer in pH 7.4 by UPLC analysis; format: ADME
Pseudomonas aeruginosa [10] = test: Antimicrobial activity against Pseudomonas aeruginosa by broth microdilution method; format: functional
Escherichia coli = test: Antimicrobial activity against Escherichia coli by broth microdilution method; format: functional

Structure (SMILES) | MIC (Pseudomonas aeruginosa [1]) | fraction unbound at 16 h, 10 µM [2] | half-life [3] | clearance [4] | fraction unbound [5] | Kinact (Pseudomonas aeruginosa [6]) | MIC (Pseudomonas aeruginosa [7]) | Vd [8] | half-life [9] | MIC90 (Acinetobacter baumannii) | MIC90 (Klebsiella pneumoniae) | MIC90 (Pseudomonas aeruginosa [10]) | MIC90 (Escherichia coli)
C[C@H]1[C@H](NC(=O)/C(=N\OC(C)(C)C(=O)O)c2csc(N)n2)C(=O)N1C(=O)NS(=O)(=O)NCc1cc(=O)c(O)c[nH]1 | 8 mg/L (≈ 13.3 µM) | 0.61 | – | – | – | 2.5 ×10⁴ /M/s | < 0.06 mg/L | – | > 150 h | – | – | – | –
C[C@H]1[C@H](NC(=O)/C(=N\OC(C)(C)C(=O)O)c2csc(N)n2)C(=O)N1S(=O)(=O)O [AZTREONAM] | 4 mg/L (≈ 9.19 µM) | – | – | – | – | – | 0.25 mg/L (≈ 0.574 µM) | – | – | > 512 mg/L | > 512 mg/L | 1020 mg/L (≈ 2350 µM) | > 512 mg/L
C[C@H]1[C@H](NC(=O)/C(=N\OC(C)(C)C(=O)O)c2csc(N)n2)C(=O)N1C(=O)NS(=O)(=O)N1C[C@@H](NC(=O)[C@@H]2CCCN2C(=O)c2cc(=O)c(O)c[nH]2)CC1=O | 8 mg/L (≈ 10.1 µM) | 0.28 | – | – | – | 1.4 ×10⁴ /M/s | 0.5 mg/L (≈ 0.629 µM) | – | 114 h | – | – | – | –
C[C@H]1[C@H](NC(=O)/C(=N\OC(C)(C)C(=O)O)c2csc(N)n2)C(=O)N1C(=O)NS(=O)(=O)N1N=C(c2cc(=O)c(O)c[nH]2)NCC1=O | 16 mg/L (≈ 23.9 µM) | – | – | – | – | 3.8 ×10³ /M/s | 2 mg/L (≈ 2.99 µM) | – | 40 h | – | – | – | –
CC(C)(O/N=C(\C(=O)N[C@@H]1C(=O)N(C(=O)NS(=O)(=O)N2C[C@@H](NC(=O)NCc3cc(=O)c(O)cn3O)CC2=O)C1(C)C)c1csc(N)n1)C(=O)O | 8 mg/L (≈ 10.6 µM) | 0.23 | – | – | – | 8.1 ×10² /M/s | 1 mg/L (≈ 1.32 µM) | – | > 150 h | – | – | – | –
C[C@H]1[C@H](NC(=O)/C(=N\OC(C)(C)C(=O)O)c2csc(N)n2)C(=O)N1C(=O)NS(=O)(=O)N1C[C@@H](NC(=O)[C@H](CN)NC(=O)c2cc(=O)c(O)c[nH]2)CC1=O | 4 mg/L (≈ 5.1 µM) | 0.18 | – | – | – | 9.4 ×10³ /M/s | 0.5 mg/L (≈ 0.638 µM) | – | 51 h | – | – | – | –

More lines, in order of falling MIC (Pseudomonas aeruginosa [1]), values ahead:

MIC (Pseudomonas aeruginosa [1]) | fraction unbound at 16 h, 10 µM [2] | half-life [3] | clearance [4] | fraction unbound [5] | Kinact (Pseudomonas aeruginosa [6]) | MIC (Pseudomonas aeruginosa [7]) | Vd [8] | half-life [9] | Structure (SMILES) | MIC90 (Acinetobacter baumannii) | MIC90 (Klebsiella pneumoniae) | MIC90 (Pseudomonas aeruginosa [10]) | MIC90 (Escherichia coli)
4 mg/L (≈ 5.54 µM) | 0.31 | – | – | – | 2.3 ×10⁵ /M/s | < 0.06 mg/L | – | 117 h | C[C@H]1[C@H](NC(=O)/C(=N\OC(C)(C)C(=O)O)c2csc(N)n2)C(=O)N1C(=O)NS(=O)(=O)N1C[C@@H](n2cc(-c3cc(=O)c(O)c[nH]3)nn2)CC1=O | – | – | – | –
1 mg/L (≈ 1.32 µM) | 0.26 | – | – | – | 1.9 ×10⁴ /M/s | 0.25 mg/L (≈ 0.33 µM) | – | > 150 h | C[C@H]1[C@H](NC(=O)/C(=N\OC(C)(C)C(=O)O)c2csc(N)n2)C(=O)N1C(=O)NS(=O)(=O)N1C[C@@H](NC(=O)N(C)Cc2cc(=O)c(O)cn2O)CC1=O | – | – | – | –
1 mg/L (≈ 1.46 µM) | 0.33 | – | – | – | 4.6 ×10⁴ /M/s | < 0.06 mg/L | – | > 150 h | C[C@H]1[C@H](NC(=O)/C(=N\OC(C)(C)C(=O)O)c2csc(N)n2)C(=O)N1C(=O)NS(=O)(=O)N1CC[C@H](NC(=O)c2cc(=O)c(O)c[nH]2)C1 | – | – | – | –
0.5 mg/L (≈ 0.661 µM) | 0.27 | – | – | – | 3.1 ×10⁴ /M/s | 0.25 mg/L (≈ 0.33 µM) | – | 19 h | C[C@H]1[C@H](NC(=O)/C(=N\OC(C)(C)C(=O)O)c2csc(N)n2)C(=O)N1C(=O)NS(=O)(=O)N1C[C@@H](N(C)C(=O)NCc2cc(=O)c(O)cn2O)CC1=O | – | – | – | –
0.5 mg/L (≈ 0.701 µM) | 0.08 | – | – | – | 3 ×10⁵ /M/s | < 0.06 mg/L | – | > 150 h | C[C@H]1[C@H](NC(=O)/C(=N\OC(C)(C)C(=O)O)c2csc(N)n2)C(=O)N1C(=O)NS(=O)(=O)N1C[C@@H](NC(=O)c2cc(=O)c(O)cn2O)CC1=O | – | – | – | –
0.5 mg/L (≈ 0.649 µM) | 0.45 | – | – | – | 1 ×10⁵ /M/s | < 0.06 mg/L | – | > 150 h | C[C@H]1[C@H](NC(=O)/C(=N\OC(C)(C)C(=O)O)c2csc(N)n2)C(=O)N1C(=O)NS(=O)(=O)N1C[C@@H](NC(=O)CNC(=O)c2cc(=O)c(O)cn2O)CC1=O | – | – | – | –
0.25 mg/L (≈ 0.343 µM) | 0.04 | 0.39 h | 0.54 L/h/kg | 0.04 | 7.2 ×10⁴ /M/s | < 0.06 mg/L | 0.28 L/kg | 138 h | C[C@H]1[C@H](NC(=O)/C(=N\OC(C)(C)C(=O)O)c2csc(N)n2)C(=O)N1C(=O)NS(=O)(=O)n1nc(-c2cc(=O)c(O)c[nH]2)n(C[C@@H](O)CO)c1=O | > 128 mg/L | 8 mg/L (≈ 11 µM) | 0.25 mg/L (≈ 0.343 µM) | 16 mg/L (≈ 22 µM)
0.25 mg/L (≈ 0.365 µM) | 0.29 | – | – | – | 1.4 ×10⁵ /M/s | 0.06 mg/L (≈ 0.0876 µM) | – | 41 h | CC(C)(O/N=C(\C(=O)NC1CN(C(=O)NS(=O)(=O)N2CCN(NC(=O)c3cc(=O)c(O)c[nH]3)C2=O)C1=O)c1csc(N)n1)C(=O)O (stereo not drawn) [PIRAZMONAM] | – | – | – | –
